According to PubChem BioAssay AID2060904 (Molecular Pharmacology Branch, DTP, NCI, 2025):

System: 349418-098-R-PDC complex spheroid viability
Experiment: Anticancer human tumor 349418-098-R-PDC patient-derived lung adenocarcinoma cell line growth inhibition [RAS]
Conditions: for IC50: curve of first compound; for viability, T/C: stronger effect = lower value
Summary of the method: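 Tumour cells grown as complex spheroids with HUVEC endothelial cells and mesenchymal stem cells, treated with RAS pathway inhibitor combinations. Each agent spans half-log steps from near clinical Cmax, or 10 microM where Cmax is unknown.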

[1] = second compound 0.0316 µM, first compound 0.0316 µM
[2] = second compound 0.0316 µM, first compound 0.1 µM
[3] = second compound 0.0316 µM, first compound 0.316 µM
[4] = second compound 0.0316 µM, first compound 1 µM
[5] = second compound 0.1 µM, first compound 0.0316 µM
[6] = second compound 0.1 µM, first compound 0.1 µM
[7] = second compound 0.1 µM, first compound 0.316 µM
[8] = second compound 0.1 µM, first compound 1 µM
[9] = second compound 0.316 µM, first compound 0.0316 µM
[10] = second compound 0.316 µM, first compound 0.1 µM
[11] = second compound 0.316 µM, first compound 0.316 µM
[12] = second compound 0.316 µM, first compound 1 µM
[13] = second compound 1 µM, first compound 0.0316 µM
[14] = second compound 1 µM, first compound 0.1 µM
[15] = second compound 1 µM, first compound 0.316 µM
[16] = second compound 1 µM, first compound 1 µM
[17] = second compound 3.16 µM, first compound 0.0316 µM
[18] = second compound 3.16 µM, first compound 0.1 µM
[19] = second compound 3.16 µM, first compound 0.316 µM
[20] = second compound 3.16 µM, first compound 1 µM
[21] = second compound 10 µM, first compound 0.0316 µM
[22] = second compound 10 µM, first compound 0.1 µM
[23] = second compound 10 µM, first compound 0.316 µM
[24] = second compound 10 µM, first compound 1 µM
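Note: spheroids exposed to compound for seven days before viability readout.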

Work on C=CC(=O)N1CCN(c2nc(OCC3CCCN3C)nc3c(F)c(-c4nc(N)cc(C)c4C(F)(F)F)c(Cl)cc23)C(C)C1 (centres undefined) + C#Cc1c(F)ccc2cc(O)cc(-c3ncc4c(N5CC6CCC(C5)N6)nc(OCC56CCCN5CC(F)C6)nc4c3F)c12 yielded an IC50 (second compound 0.0316 µM) of over 1000 nM, an IC50 (second compound 0.1 µM) of over 1000 nM and an IC50 (second compound 0.316 µM) of over 1000 nM. The IC50 (second compound 1 µM) was over 1000 nM, the IC50 (second compound 3.16 µM) was over 1000 nM and the IC50 (second compound 10 µM) was 272 nM. For the same molecule, the viability, T/C (second compound 0.0316 µM, first compound 0.00316 µM) was 82.8%, the viability, T/C (second compound 0.0316 µM, first compound 0.01 µM) was 105% and the viability, T/C [1] was 112%. The viability, T/C [2] was 75.1%, the viability, T/C [3] was 111% and the viability, T/C [4] was 69.8%. It also gave a viability, T/C (second compound 0.1 µM, first compound 0.00316 µM) of 74.3%, a viability, T/C (second compound 0.1 µM, first compound 0.01 µM) of 124% and a viability, T/C [5] of 104%. For the same molecule, the viability, T/C [6] was 87.2%, the viability, T/C [7] was 98.3% and the viability, T/C [8] was 83.9%. It also gave a viability, T/C (second compound 0.316 µM, first compound 0.00316 µM) of 65.6%, a viability, T/C (second compound 0.316 µM, first compound 0.01 µM) of 125% and a viability, T/C [9] of 109%. For the same molecule, the viability, T/C [10] was 79.7%, the viability, T/C [11] was 89.3% and the viability, T/C [12] was 87.6%. For the same molecule, the viability, T/C (second compound 1 µM, first compound 0.00316 µM) was 81%, the viability, T/C (second compound 1 µM, first compound 0.01 µM) was 114% and the viability, T/C [13] was 82.9%. For the same molecule, the viability, T/C [14] was 91.2%, the viability, T/C [15] was 83.2% and the viability, T/C [16] was 77.9%. The viability, T/C (second compound 3.16 µM, first compound 0.00316 µM) was 77.4%, the viability, T/C (second compound 3.16 µM, first compound 0.01 µM) was 105% and the viability, T/C [17] was 112%. The viability, T/C [18] was 73.3%, the viability, T/C [19] was 116% and the viability, T/C [20] was 75.2%. It also gave a viability, T/C (second compound 10 µM, first compound 0.00316 µM) of 91%, a viability, T/C (second compound 10 µM, first compound 0.01 µM) of 75% and a viability, T/C [21] of 85.3%. The viability, T/C [22] was 66.8%, the viability, T/C [23] was 47.7% and the viability, T/C [24] was 7.82%.

With CC(=O)OC12COC1CC(O)C1(C)C(=O)C(O)C3=C(C)C(OC(=O)C(O)C(NC(=O)OC(C)(C)C)c4ccccc4)CC(O)(C(OC(=O)c4ccccc4)C21)C3(C)C (centres undefined) + C#Cc1c(F)ccc2cc(O)cc(-c3ncc4c(N5CC6CCC(C5)N6)nc(OCC56CCCN5CC(F)C6)nc4c3F)c12 the IC50 (second compound 0.0316 µM) was under 31.6 nM, the IC50 (second compound 0.1 µM) was under 31.6 nM and the IC50 (second compound 0.316 µM) was under 31.6 nM. It also gave an IC50 (second compound 1 µM) of under 31.6 nM, an IC50 (second compound 3.16 µM) of under 31.6 nM and an IC50 (second compound 10 µM) of under 31.6 nM. It also gave a viability, T/C [1] of 16.5%, a viability, T/C [2] of 15.4% and a viability, T/C [3] of 21.2%. For the same molecule, the viability, T/C [4] was 19.1%, the viability, T/C (second compound 0.0316 µM, first compound 3.16 µM) was 19.9% and the viability, T/C (second compound 0.0316 µM, first compound 10 µM) was 22.4%. It also gave a viability, T/C [5] of 16.3%, a viability, T/C [6] of 23.3% and a viability, T/C [7] of 19.9%. For the same molecule, the viability, T/C [8] was 18.4%, the viability, T/C (second compound 0.1 µM, first compound 3.16 µM) was 24.4% and the viability, T/C (second compound 0.1 µM, first compound 10 µM) was 27%. For the same molecule, the viability, T/C [9] was 16.1%, the viability, T/C [10] was 19.1% and the viability, T/C [11] was 26%. The viability, T/C [12] was 21.1%, the viability, T/C (second compound 0.316 µM, first compound 3.16 µM) was 23.3% and the viability, T/C (second compound 0.316 µM, first compound 10 µM) was 24.5%. The viability, T/C [13] was 16.8%, the viability, T/C [14] was 16.6% and the viability, T/C [15] was 21.4%. The viability, T/C [16] was 18.2%, the viability, T/C (second compound 1 µM, first compound 3.16 µM) was 19.1% and the viability, T/C (second compound 1 µM, first compound 10 µM) was 24.4%. The viability, T/C [17] was 13.2%, the viability, T/C [18] was 17.9% and the viability, T/C [19] was 17.5%. It also gave a viability, T/C [20] of 24.6%, a viability, T/C (second compound 3.16 µM, first compound 3.16 µM) of 31.2% and a viability, T/C (second compound 3.16 µM, first compound 10 µM) of 23.4%. For the same molecule, the viability, T/C [21] was 7.77%, the viability, T/C [22] was 5.42% and the viability, T/C [23] was 9.77%. It also gave a viability, T/C [24] of 6.32%, a viability, T/C (second compound 10 µM, first compound 3.16 µM) of 7.62% and a viability, T/C (second compound 10 µM, first compound 10 µM) of 5.03%.
